Laboratory results published in publication PMC5125662, “The Open Form Inducer Approach for Structure-Based Drug Design” (PLoS ONE, 2016).
Like-named read-outs stand apart in the source and are kept apart here.

What was measured:
TcDHODH = target: T1, TcDHODH (Trypanosoma cruzi, UniProt Q4D3W2); test: biochemical; conditions: for IC50: 500 μM L-dihydroorotate, 2 mM fumarate, pH 8.0; for Ki: read-out: TcDHODH Ki^app
T1 construct: made in house
T1 sequence (Q4D3W2 1-314): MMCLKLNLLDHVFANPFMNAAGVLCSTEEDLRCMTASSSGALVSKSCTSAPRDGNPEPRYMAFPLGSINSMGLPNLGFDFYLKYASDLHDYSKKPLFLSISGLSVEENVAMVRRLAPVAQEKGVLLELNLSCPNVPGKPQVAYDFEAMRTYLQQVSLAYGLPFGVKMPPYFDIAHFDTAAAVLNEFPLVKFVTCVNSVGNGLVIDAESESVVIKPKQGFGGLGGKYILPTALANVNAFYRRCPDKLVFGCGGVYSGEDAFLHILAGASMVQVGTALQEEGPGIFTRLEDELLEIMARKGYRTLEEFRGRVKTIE

[1] = parameters: method as in earlier work; conditions: cited from earlier work

Structure (SMILES)	IC50 (TcDHODH) [µM]	Ki (TcDHODH; calculated from IC50 by Cheng-Prusoff equation, Km for dihydroorotate […]) [µM]	Ki (TcDHODH) [µM]	pKa [1]
O=C(O)c1cc(=O)[nH]c(=O)[nH]1 [ORO, orotate, reference compound]	112 ± 21	5.51		
CC(C)(C)CCc1c(C(=O)O)[nH]c(=O)[nH]c1=O [Compound 1]	≥ 400		> 19.7	
O=C(O)c1ccc2ccccc2c1 [2-naphthoic acid]				4.17
